The values below come from patent US10821115B2, “Compounds that inhibit Mcl-1 protein” (priority 2017, dated 2020).

Experiment [1] concerns the target recombinant human Mcl-1 (residues 171-327) / Bim interaction (Homo sapiens (Human), UniProt Q07820). As to the kind of experiment: biochemical. The format is binding. The settings on record: read-out: Mcl-1 HTRF IC50. On the technique in general: TR-FRET usually uses a lanthanide donor and a delayed reading to cut background.
For experiment [2], the system named is human multiple myeloma cell line, OPM-2. As to the kind of experiment: Cell viability assay (OPM-2 10 FBS), CellTiter-Glo. The format is cell-based. Summed up:
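IC50 values come from 4-parameter logistic fits of luminescence signals reflecting cell viability. Treatment lasted 16 h at 37 °C in complete medium with 10% FBS, starting from 3000 cells/well.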
(Cellular ATP, detected with luciferase, serves as a proxy for viable cell number.)

[3] abbreviates: 0.1 nM Mcl-1(171-327), 0.05 nM biotin-Bim (51-76).
[4] abbreviates: TR-FRET, Mcl-1(171-327) / biotin-Bim (51-76).
The mark [5] stands for this setting: Homo sapiens, OPM-2, 16 h, read-out: OPM-2 10% FBS IC50 IP, OPM-2 cells, 10% FBS, 16 h, CellTiter-Glo.
Where [6] appears, read: Homo sapiens, OPM-2, 16 h, read-out: OPM-2 10% FBS IC50 IP, OPM-2 cells, 10% FBS, 16 h incubation.

pIC50: −log10 of the molar value. Read-outs that look alike come from different tables or passages of the source.

Chain of recombinant human Mcl-1 (residues 171-327) / Bim interaction (Q07820 171-327): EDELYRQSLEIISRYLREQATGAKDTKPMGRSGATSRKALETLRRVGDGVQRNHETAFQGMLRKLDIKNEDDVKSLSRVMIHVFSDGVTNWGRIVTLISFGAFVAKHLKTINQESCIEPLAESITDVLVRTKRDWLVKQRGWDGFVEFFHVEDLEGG

For “(1S,3′R,6′R,7′R,8′E, 11′S,12′R)-6-chloro-12′-(2-hydroxyethyl)-7′-methoxy-11′-methyl-7′-((9aR)-octahydro-2H-pyrido[1,2-a]pyrazin-2-ylmethyl)-3,4-dihydro-2H, 15′H-spiro[naphthalene-1,22′-[20]oxa[13]thia[1,14]diazatetracyclo[14.7.2.0-3,6˜.0˜19,24˜]pentacosa[8,16,18,24]tetraen]-15′-one 13′,13′-dioxide [Example 358]”, the pIC50 (usually the IC50 on a negative log10 scale, so that one unit is a factor of ten) in experiment [1] (setting [3]) was 10.18; in experiment [2] (read-out: OPM-2 10% FBS IC50 IP, OPM-2 cells, 10% FBS, 16 h incubation), 6.84.
With `C[C@@H]1[C@@H](C)C/C=C/[C@](O)(CCCO)[C@@H]2CC[C@H]2CN2C[C@@]3(CCCc4cc(Cl)ccc43)COc3ccc(cc32)C(=O)NS1(=O)=O` [Example 100156, (1S,3′R,6′R,7′R,8′E,11′S,12′R)-6-chloro-7′-hydroxy-7′-(3-hydroxypropyl)-11′,12′-dimethyl-3,4-dihydro-2H,15′H-spiro[naphthalene-1,22′-[20]oxa[13]thia[1,14]diazatetracyclo [14.7.2.0~3,6~.0~19,24~]pentacosa[8,16,18,24]tetraen]-15′-one 13′,13′-dioxide], the pIC50 was 9.39 in experiment [1] (setting [4]) and 6.25 in experiment [2] (setting [5]).
As for `COCC[C@@H]1[C@@H](C)C/C=C/[C@](CN2CCN(C)CC2)(OC)[C@@H]2CC[C@H]2CN2C[C@@]3(CCCc4cc(Cl)ccc43)COc3ccc(cc32)C(=O)NS1(=O)=O` [Example 180, (1S,3′R,6′R,7′S,8′E,11′S,12′R)-6-chloro-7′-methoxy-12′-(2-methoxyethyl)-11′-methyl-7′-((4-methyl-1-piperazinyl)methyl)-3,4-dihydro-2H,15′H-spiro[naphthalene-1,22′-[20]oxa[13]thia[1,14]diazatetracyclo [14.7.2.0~3,6~.0~19,24~]pentacosa[8,16,18,24]tetraen]-15′-one 13′,13′-dioxide], the pIC50 in experiment [1] (setting [3]) is 9.97; in experiment [2] (setting [6]), 7.09.
As to `C[C@@H]1[C@@H](C)CCC[C@](C#N)(NC(=O)c2ccccc2)[C@@H]2CC[C@H]2CN2C[C@@]3(CCCc4cc(Cl)ccc43)COc3ccc(cc32)C(=O)NS1(=O)=O` [Example 100255, N-((1S,3′R,6′R,7′S,11′S,12′R)-6-chloro-7′-cyano-11′,12′-dimethyl-13′,13′-dioxido-15′-oxo-3,4-dihydro-2H-spiro[naphthalene-1,22′-[20]oxa[13]thia[1,14]diazatetracyclo [14.7.2.0~3,6~.0~19,24~]pentacosa[16,18,24]trien]-7′-yl)benzamide], the pIC50 is 7.84 in experiment [1] (setting [4]) and 5.30 in experiment [2] (setting [5]).
For `CO[C@@]1(CN2CC(C)(C#N)C2)/C=C/C[C@H](C)[C@@H](C)S(=O)(=O)NC(=O)c2ccc3c(c2)N(C[C@@H]2CC[C@H]21)C[C@@]1(CCCc2cc(Cl)ccc21)CO3` [Example 67, 1-(((1S,3′R,6′R,7′S,8′E,11′S, 12′R)-6-chloro-7′-methoxy-11′,12′-dimethyl-13′,13′-dioxido-15′-oxo-3,4-dihydro-2H-spiro[naphthalene-1,22′-[20]oxa[13]thia[1,14]diazatetracyclo [14.7.2.0~3,6~.0~19,24~]pentacosa[8,16,18,24]tetraen]-7′-yl)methyl)-3-methyl-3-azetidinecarbonitrile], the pIC50 was 9.71 in experiment [1] (setting [3]) and 6.83 in experiment [2] (setting [6]).
Turning to `C[C@@H]1[C@@H](C)C/C=C/[C@@](O)([C@@H](C)C(=O)N(C)C)[C@@H]2CC[C@H]2CN2C[C@@]3(CCCc4cc(Cl)ccc43)COc3ccc(cc32)C(=O)NS1(=O)=O` (single isomer, unassigned) [Example 100126], the pIC50 in experiment [1] (setting [4]) is 9.74; in experiment [2] (read-out: OPM-2 10% FBS IC50 IP, OPM-2 cells, 10% FBS, 16 h, CellTiter-Glo) it was 7.39.
Consider `CO[C@]1(CS(C)(=O)=O)/C=C/C[C@H](C)[C@@H](C)S(=O)(=O)NC(=O)c2ccc3c(c2)N(C[C@@H]2CC[C@H]21)C[C@@]1(CCCc2cc(Cl)ccc21)CO3` [Example 100492, (1S,3′R,6′R,7′R,8′E,11′S,12′R)-6-chloro-7′-methoxy-11′,12′-dimethyl-7′-((methylsulfonyl)methyl)-3,4-dihydro-2H,15′H-spiro[naphthalene-1,22′-[20]oxa[13]thia[1,14]diazatetracyclo [14.7.2.0~3,6~.0~19,24~]pentacosa[8,16,18,24]tetraen]-15′-one 13′,13′-dioxide], for which the pIC50 in experiment [1] (setting [4]) is 9.13; in experiment [2] (setting [5]), 6.36.
Taken in the same sequence, the figures for `CO[C@]1(CCN(C)C)/C=C/C[C@H](C)[C@@H](C)S(=O)(=O)NC(=O)c2ccc3c(c2)N(C[C@@H]2CC[C@H]21)C[C@@]1(CCCc2cc(Cl)ccc21)CO3` [Example 100381, (1S,3′R,6′R,7′R,8′E,11′S,12′R)-6-chloro-7′-(2-(dimethylamino)ethyl)-7′-methoxy-11′,12′-dimethyl-3,4-dihydro-2H,15′H-spiro[naphthalene-1,22′-[20]oxa[13]thia[1,14]diazatetracyclo [14.7.2.0~3,6~.0~19,24~]pentacosa[8,16,18,24]tetraen]-15′-one 13′,13′-dioxide] were 9.48 and 5.54.
Regarding `C[C@@H]1[C@@H](C)CCC[C@](O)(CC#N)[C@@H]2CC[C@H]2CN2C[C@@]3(CCCc4cc(Cl)ccc43)COc3ccc(cc32)C(=O)NS1(=O)=O` (single isomer, unassigned) [Example 100080], the figures for the pIC50 in experiment [1] (setting [4]) and in experiment [2] (setting [5]) were 9.21 and 6.09, respectively.
For `CO[C@@]1([C@@H](C)O)CCC[C@H](C)[C@@H](C)S(=O)(=O)NC(=O)c2ccc3c(c2)N(C[C@@H]2CC[C@H]21)C[C@@]1(CCCc2cc(Cl)ccc21)CO3` [Example 100483, (1S,3′R,6′R,7′S,11′S,12′R)-6-chloro-7′-((1R)-1-hydroxyethyl)-7′-methoxy-11′,12′-dimethyl-3,4-dihydro-2H,15′H-spiro[naphthalene-1,22′-[20]oxa[13]thia[1,14]diazatetracyclo [14.7.2.0~3,6~.0~19,24~]pentacosa[16,18,24]trien]-15′-one 13′,13′-dioxide] the same measures were 8.78 and 5.77.
For `CCC(=O)C[C@]1(OC)/C=C/C[C@H](C)[C@@H](C)S(=O)(=O)NC(=O)c2ccc3c(c2)N(C[C@@H]2CC[C@H]21)C[C@@]1(CCCc2cc(Cl)ccc21)CO3` [Example 100457, (1S,3′R,6′R,7′S,8′E,11′S,12′R)-6-chloro-7′-methoxy-11′,12′-dimethyl-7′-(2-oxobutyl)-3,4-dihydro-2H,15′H-spiro[naphthalene-1,22′-[20]oxa[13]thia[1,14]diazatetracyclo [14.7.2.0~3,6~.0~19,24~]pentacosa[8,16,18,24]tetraen]-15′-one 13′,13′-dioxide] the same measures were 9.48 and 6.01.
Taken in the same sequence, the figures for `COC[C@]1(OC)CCC[C@H](C)[C@@H](C)S(=O)(=O)NC(=O)c2ccc3c(c2)N(C[C@@H]2CC[C@H]21)C[C@@]1(CCCc2cc(Cl)ccc21)CO3` [Example 100189, (1S,3′R,6′R,7′S,11′S,12′R)-6-chloro-7′-methoxy-7′-(methoxymethyl)-11′,12′-dimethyl-3,4-dihydro-2H,15′H-spiro[naphthalene-1,22′-[20]oxa[13]thia[1,14]diazatetracyclo [14.7.2.0~3,6~.0~19,24~]pentacosa[16,18,24]trien]-15′-one 13′,13′-dioxide] were 9.09 and 6.15.
For the compound `CO[C@]1(CN2CCN(C(C)(C)C)CC2)/C=C/C[C@H](C)[C@@H](C)S(=O)(=O)NC(=O)c2ccc3c(c2)N(C[C@@H]2CC[C@H]21)C[C@@]1(CCCc2cc(Cl)ccc21)CO3` [Example 307, (1S,3′R,6′R,7′R,8′E,11′S,12′R)-7′-((4-tert-butyl-1-piperazinyl)methyl)-6-chloro-7′-methoxy-11′,12′-dimethyl-3,4-dihydro-2H,15′H-spiro[naphthalene-1,22′-[20]oxa[13]thia[1,14]diazatetracyclo [14.7.2.0~3,6~.0~19,24~]pentacosa[8,16,18,24]tetraen]-15′-one 13′,13′-dioxide], the figures for the pIC50 in experiment [1] (setting [3]) and in experiment [2] (setting [6]) were 10.06 and 7.39, respectively.
In the case of `C[C@@H]1[C@@H](C)C/C=C/[C@@](O)(CC(=O)OCC2(C)COC2)[C@@H]2CC[C@H]2CN2C[C@@]3(CCCc4cc(Cl)ccc43)COc3ccc(cc32)C(=O)NS1(=O)=O` [Example 100299, (3-methyl-3-oxetanyl)methyl ((1S,3′R,6′R,7′S,8′E,11′S,12′R)-6-chloro-7′-hydroxy-11′,12′-dimethyl-13′,13′-dioxido-15′-oxo-3,4-dihydro-2H-spiro[naphthalene-1,22′-[20]oxa[13]thia[1,14]diazatetracyclo [14.7.2.0~3,6~.0~19,24~]pentacosa[8,16,18,24]tetraen]-7′-yl)acetate], the pIC50 in experiment [1] (setting [4]) was 9.46; in experiment [2] (setting [5]), 6.21.
With `COC[C@@]1(O)CCC[C@H](C)[C@@H](C)S(=O)(=O)NC(=O)c2ccc3c(c2)N(C[C@@H]2CC[C@H]21)C[C@@]1(CCCc2cc(Cl)ccc21)CO3` [Example 100150, (1S,3′R,6′R,7′R,11′S,12′R)-6-chloro-7′-hydroxy-7′-(methoxymethyl)-11′,12′-dimethyl-3,4-dihydro-2H,15′H-spiro[naphthalene-1,22′-[20]oxa[13]thia[1,14]diazatetracyclo [14.7.2.0~3,6~.0~19,24~]pentacosa[16,18,24]trien]-15′-one 13′,13′-dioxide], the pIC50 in experiment [1] (setting [4]) is 8.77; in experiment [2] (setting [5]), 5.84.
